The results in this text go back to PMC10557616 (bioRxiv, 2023).

Format in all cases: biochemical
Settings in all cases: phosphocreatine as phosphate donor

Experiment [1] has as its target T1, creatine kinase U-type (CKMT1) (Homo sapiens, UniProt P12532). The experiment is described as follows: uHPLC-MS detection of ATP.
Experiment [2] deals with T2, CKM (Homo sapiens, UniProt P06732). The experiment is described as follows: uHPLC-MS detection of ATP.
In experiment [3] the target is T2, CKM. The experiment is described as follows: uHPLC-MS detection of TFV-DP.
For experiment [4], the target named is T1, creatine kinase U-type (CKMT1). The experiment is described as follows: uHPLC-MS detection of TFV-DP.

T2 sequence (P06732 whole entry): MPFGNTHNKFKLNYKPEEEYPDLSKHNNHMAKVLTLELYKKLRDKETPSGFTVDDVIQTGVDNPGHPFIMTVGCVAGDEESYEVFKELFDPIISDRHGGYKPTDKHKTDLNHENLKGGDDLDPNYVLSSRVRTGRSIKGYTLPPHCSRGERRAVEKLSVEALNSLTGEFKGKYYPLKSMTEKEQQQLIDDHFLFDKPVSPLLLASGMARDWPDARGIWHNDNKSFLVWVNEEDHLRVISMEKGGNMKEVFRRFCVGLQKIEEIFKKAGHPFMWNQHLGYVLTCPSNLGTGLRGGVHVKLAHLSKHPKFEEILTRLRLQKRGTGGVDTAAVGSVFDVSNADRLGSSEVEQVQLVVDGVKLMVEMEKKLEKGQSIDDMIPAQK

Regarding `Nc1ncnc2c1ncn2[C@@H]1O[C@H](COP(=O)(O)OP(=O)(O)O)[C@@H](O)[C@H]1O` [ADP], the “uHPLC-MS detection of ATP” value is “the proteins were incubated with phosphocreatine and ADP and ATP was detected by uHPLC-MS” in experiment [1]; “the proteins were incubated with phosphocreatine and ADP and ATP was detected by uHPLC-MS” at CKM [2].
On to `C[C@H](Cn1cnc2c(N)ncnc21)OCP(=O)(O)OP(=O)(O)O` [TFV-MP], for which the “uHPLC-MS detection of TFV-DP” value on CKM [3] is “no significant differences in TFV-DP levels between the CKM, CKB, or CKMT1 catalyzed reactions”; in experiment [4] it was “no significant differences in TFV-DP levels between the CKM, CKB, or CKMT1 catalyzed reactions”.
